29 compounds from ChEMBL document CHEMBL3102719, “Ligands of the neuropeptide Y Y2 receptor” (Bioorg Med Chem Lett, 2014) can be followed below.

In series [1] the target is T1, Neuropeptide Y receptor type 2 (Homo sapiens, UniProt P49146).
T1 sequence (P49146 whole entry): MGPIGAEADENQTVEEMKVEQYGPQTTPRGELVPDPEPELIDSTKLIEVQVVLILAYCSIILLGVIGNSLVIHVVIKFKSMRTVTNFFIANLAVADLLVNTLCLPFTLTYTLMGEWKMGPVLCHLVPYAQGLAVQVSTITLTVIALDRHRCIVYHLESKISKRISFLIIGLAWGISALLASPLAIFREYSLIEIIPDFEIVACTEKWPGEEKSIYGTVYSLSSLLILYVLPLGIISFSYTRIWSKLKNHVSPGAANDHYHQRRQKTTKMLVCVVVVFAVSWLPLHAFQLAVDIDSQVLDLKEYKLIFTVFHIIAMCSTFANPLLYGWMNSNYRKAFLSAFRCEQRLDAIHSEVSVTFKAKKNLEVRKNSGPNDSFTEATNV
The experiment in a line: Displacement of [125I]-PYY from human NPYY2 receptor.

Series [2] concerns the target T1, Neuropeptide Y receptor type 2. The experiment in a line: Displacement of [125I]-PYY from NPYY2 receptor (unknown origin).
The target in series [3] is T2, Neuropeptide Y receptor type 2 (Homo sapiens) (UniProt P49146).
T2 sequence (whole entry): T1 sequence (P49146 whole entry)
The experiment in a line: Antagonist activity at NPYY2 receptor (unknown origin).

Series [4] has as its target T1, Neuropeptide Y receptor type 2. The experiment in a line: Binding affinity to NPYY2 receptor (unknown origin).
Series [5] has the same target. The experiment in a line: Binding affinity to NPYY2 receptor (unknown origin) preincubated for 20 mins.
The target in series [6] is Kappa-type opioid receptor (Homo sapiens, UniProt P41145). Put plainly: Binding affinity to kappa opioid receptor (unknown origin).
The target in series [7] is T3, Alpha-1A adrenergic receptor (Homo sapiens, UniProt P35348).
T3 sequence (P35348 whole entry): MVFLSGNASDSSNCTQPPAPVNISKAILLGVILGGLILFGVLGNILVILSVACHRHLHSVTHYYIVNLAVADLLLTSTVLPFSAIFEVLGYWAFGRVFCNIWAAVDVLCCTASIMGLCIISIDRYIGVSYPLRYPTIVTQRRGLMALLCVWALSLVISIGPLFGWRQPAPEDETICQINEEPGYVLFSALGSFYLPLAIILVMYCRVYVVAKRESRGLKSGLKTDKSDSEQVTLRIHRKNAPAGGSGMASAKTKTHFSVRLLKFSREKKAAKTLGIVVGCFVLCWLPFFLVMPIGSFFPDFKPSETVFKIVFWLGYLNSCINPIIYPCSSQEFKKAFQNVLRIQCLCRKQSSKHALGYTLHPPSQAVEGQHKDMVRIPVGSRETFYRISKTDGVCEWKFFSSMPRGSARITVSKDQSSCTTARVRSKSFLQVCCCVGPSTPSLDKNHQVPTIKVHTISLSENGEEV
The experiment in a line: Binding affinity to adrenergic alpha1A receptor (unknown origin).

Another series deals with Mu-type opioid receptor (Homo sapiens, UniProt P35372). The experiment in a line: Binding affinity to mu opioid receptor (unknown origin).
The nature of series [8]: Cmax in rat at 10 mg/kg, sc. Type of series: ADME, organism-based. Set-up: dose 10 mg/kg, route subcutaneous. As to conditions: in vivo.
The species entered for series [9] is Homo sapiens. Put plainly: Selectivity ratio of NPYY4 receptor (unknown origin) to NPYY2 receptor (unknown origin).
Series [10] is filed under the species Homo sapiens. Put plainly: Selectivity ratio of NPYY5 receptor (unknown origin) to NPYY2 receptor (unknown origin).
Series [11] is filed under the species Homo sapiens. Put plainly: Selectivity ratio of NPYY1 receptor (unknown origin) to NPYY2 receptor (unknown origin).
Series [12] is described as follows: Half life in rat at 10 mg/kg, sc. Type of series: ADME, organism-based. Set-up: dose 10 mg/kg, route subcutaneous. As to conditions: in vivo.
The nature of series [13]: Oral bioavailability in rat at 10 mg/kg. The class given is ADME, organism-based. Conditions: in vivo.
A short description of series [14]: Bioavailability in rat at 10 mg/kg, sc. The class given is ADME, organism-based. Conditions: in vivo.
For another series, the system named is Mus musculus. The experiment in a line: Anticonvulsant activity in ip dosed mouse assessed as protection against 6 Hz psychomotor seizure. The class given is functional.
Series [15] has as its target T4, Neuropeptide Y receptor type 5 (Homo sapiens, UniProt Q15761).
T4 sequence (Q15761 whole entry): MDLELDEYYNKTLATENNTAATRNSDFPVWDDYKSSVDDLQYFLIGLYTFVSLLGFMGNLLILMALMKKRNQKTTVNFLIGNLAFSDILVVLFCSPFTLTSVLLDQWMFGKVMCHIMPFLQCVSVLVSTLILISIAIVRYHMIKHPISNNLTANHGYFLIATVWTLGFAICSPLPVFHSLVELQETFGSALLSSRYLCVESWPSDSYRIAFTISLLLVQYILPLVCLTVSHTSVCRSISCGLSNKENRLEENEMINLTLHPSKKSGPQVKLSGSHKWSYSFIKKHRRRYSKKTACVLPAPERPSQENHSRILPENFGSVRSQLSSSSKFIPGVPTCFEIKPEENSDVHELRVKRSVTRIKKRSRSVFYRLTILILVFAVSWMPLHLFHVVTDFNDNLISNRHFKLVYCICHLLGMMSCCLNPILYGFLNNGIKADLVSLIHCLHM
The experiment in a line: Binding affinity to NPYY5 receptor (unknown origin).

Non-standard residues stand in square brackets, D forms with d. Residues, ends and D or L forms follow the SMILES beside them. *: point of attachment. Palmitoyl = CCCCCCCCCCCCCCCC(=O)*; Ahx = NCCCCCC(=O)O

Kappa-type opioid receptor, sequence (P41145 whole entry): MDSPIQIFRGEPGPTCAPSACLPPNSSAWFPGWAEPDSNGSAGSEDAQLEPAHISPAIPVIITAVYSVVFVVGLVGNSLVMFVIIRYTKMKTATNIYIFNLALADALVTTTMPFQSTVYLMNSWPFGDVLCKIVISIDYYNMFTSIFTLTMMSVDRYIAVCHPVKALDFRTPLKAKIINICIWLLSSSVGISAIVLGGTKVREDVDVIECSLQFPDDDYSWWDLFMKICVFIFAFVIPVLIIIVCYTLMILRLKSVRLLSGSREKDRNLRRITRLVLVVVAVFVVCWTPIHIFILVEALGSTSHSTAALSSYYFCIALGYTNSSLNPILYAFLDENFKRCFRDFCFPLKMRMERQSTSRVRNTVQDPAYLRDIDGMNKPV
Mu-type opioid receptor, sequence (P35372 whole entry): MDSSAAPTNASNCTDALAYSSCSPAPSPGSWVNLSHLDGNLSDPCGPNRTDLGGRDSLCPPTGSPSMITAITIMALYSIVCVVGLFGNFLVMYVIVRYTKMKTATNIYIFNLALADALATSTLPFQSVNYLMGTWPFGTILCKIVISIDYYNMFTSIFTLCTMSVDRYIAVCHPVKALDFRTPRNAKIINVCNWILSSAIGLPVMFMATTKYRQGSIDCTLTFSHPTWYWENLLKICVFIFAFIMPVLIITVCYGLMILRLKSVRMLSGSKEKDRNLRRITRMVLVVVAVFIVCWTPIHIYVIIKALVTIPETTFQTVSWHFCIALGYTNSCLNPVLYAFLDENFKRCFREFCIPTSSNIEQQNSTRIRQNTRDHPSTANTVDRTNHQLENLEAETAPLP

The compound `CCC(CC)C(=O)Nc1ccc(N2CCN(C(c3ccccc3)c3nnc(C(C)C)o3)CC2)c(F)c1` (stereo not given) gave an IC50 in series [1] of 290 nM.
With `CCN(CC)C(=O)C(c1ccccc1)N1CCN(c2ccc(-c3cc(=O)n(C(C)C)[nH]3)cc2F)CC1` (stereo not given), the IC50 in series [1] turned out to be 340 nM.
On to `CN(C)CCCN(C(=O)c1cc2ccccc2s1)c1ccccc1Cc1ccccc1`, for which the IC50 in [2] turned out to be 450 nM.
In series [3], `CCC(CC)C(=O)Nc1ccc(N2CCN(C(c3ccccc3)c3nc(C)no3)CC2)c(F)c1` (stereo not given) returned a pKb of 7.4.
In series [1], `CCN(CC)C(=O)C(c1ccccc1)C1CCN(c2ccc(NC(=O)C3CCOC3)cc2F)CC1` (stereo not given) yielded an IC50 of 25 nM.
The compound `CCCCCCCCCCCCCCCC(=O)NCCCC[C@H](NC(=O)[C@H](CCCCN)NC(=O)[C@H](CCCCN)NC(=O)[C@H](Cc1ccc(O)cc1)NC(C)=O)C(=O)NCCCCCC(=O)N[C@@H](C)C(=O)N[C@@H](CCCN=C(N)N)C(=O)N[C@@H](Cc1cnc[nH]1)C(=O)N[C@@H](Cc1ccc(O)cc1)C(=O)N[C@H](C(=O)N[C@@H](CC(N)=O)C(=O)N[C@@H](CC(C)C)C(=O)N[C@H](C(=O)N[C@H](C(=O)N[C@@H](CCCN=C(N)N)C(=O)N[C@@H](CCC(N)=O)C(=O)N[C@@H](CCCN=C(N)N)C(=O)N[C@@H](Cc1ccc(O)cc1)C(N)=O)[C@@H](C)O)[C@@H](C)CC)[C@@H](C)CC` (Ac-YKKK(Palmitoyl)[Ahx]ARHYINLITRQRY-NH2) returned a Ki in [4] of 26.1 nM.
With `CCC(CC)C(=O)Nc1ccc(N2CCN(C(c3ccccc3)c3ncno3)CC2)c(F)c1` (stereo not given), the IC50 in series [1] was determined as 240 nM.
Consider `CCC(CC)C(=O)Nc1ccc(N2CCN(C(c3ccccc3)C3CCOC3)CC2)c(F)c1` (stereo not given), for which the pKb in series [3] was 7.2. The IC50 in [1] stood at 34 nM.
Turning to `CCN(CC)C(=O)C(c1ccccc1)N1CCN(c2ccc(-c3cccnc3)cc2F)CC1` (stereo not given), the IC50 in series [1] worked out at 740 nM.
Same read-out and setting: then `CC(=O)N1CCc2ccc(N(CC#Cc3ccccc3)C3CCN(Cc4ccccc4)CC3)cc21`, with 9200 nM.
In turn, `CCC(=O)NCCNC(=O)CCCC(=O)NC(=N)NCCC[C@H](NC(=O)CC1(CC(=O)N2CCN(C3c4ccccc4NC(=O)c4ccccc43)CC2)CCCC1)C(=O)NCCn1c(=O)n(-c2ccccc2)n(-c2ccccc2)c1=O` (stereo not given in full) came in with a Ki in series [5] of 9.9 nM.
In turn, `CCC(CC)C(=O)Nc1ccc(N2CCN(C(c3ccccc3)c3nc(-c4ccccc4)no3)CC2)c(F)c1` (stereo not given) showed a half-inhibitory concentration (IC50) in series [1] of 720 nM.
In series [1], `CCc1nc(C(c2ccccc2)N2CCN(c3ccc(NC(=O)C(CC)CC)cc3F)CC2)no1` (stereo not given) yielded an IC50 of 150 nM.
Still for that read-out and setting: then `CCC(CC)C(=O)Nc1ccc(N2CCN(C(c3ccccc3)c3nc(C(C)C)no3)CC2)c(F)c1` (stereo not given), with 170 nM.
With `N=C(N)NCCCC(NC(=O)CC1(CC(=O)N2CCN(C3c4ccccc4NC(=O)c4ccccc43)CC2)CCCC1)C(=O)NCCn1c(=O)n(-c2ccccc2)n(-c2ccccc2)c1=O` (single isomer, unassigned), the Ki in [6] amounted to 948 nM; in series [7], 360 nM; on Mu-type opioid receptor, 323 nM.
With `CCN(CC)C(=O)C(c1ccccc1)N1CCN(c2ccc(NC(=O)c3ccccc3-c3cccnc3)cc2F)CC1` (stereo not given), in series [8], the Cmax is 4.35 µM. The Selectivity ratio in the series filed under Homo sapiens [9], in the series filed under Homo sapiens [10] and in the series filed under Homo sapiens [11] was above 100 each time. Besides, the pKb in series [3] was found to be 8.04. Also, in [12], the half-life is 49.8 min. For the same compound, the bioavailability in [13] was 6%; in series [14] it was 100%.
Take `CCC(CC)C(=O)Nc1ccc(N2CCN(C(C(=O)N(CC)CC)c3ccc(O)cc3)CC2)c(F)c1` (stereo not given): in series [1], the IC50 came to 100 nM.
In turn, `CCc1noc(C(c2ccccc2)N2CCN(c3ccc(NC(=O)C(CC)CC)cc3F)CC2)n1` (stereo not given) showed a pKb in series [3] of 7.45.
As to `CCN(CC)C(=O)C(c1ccccc1)N1CCN(c2ccc(NC(=O)c3c(C)cnn3CC)cc2F)CC1` (stereo not given), the IC50 in series [1] turned out to be 35 nM.
Regarding `CCCCCCCCCCCCCCCC(=O)NCCCC[C@H](NC(=O)[C@H](CCCCN)NC(=O)[C@H](CCCCN)NC(=O)[C@H](Cc1ccc(O)cc1)NC(C)=O)C(=O)NCCCCCC(=O)N[C@@H](C)C(=O)N[C@@H](CCCNC(=N)N)C(=O)N[C@@H](Cc1cnc[nH]1)C(=O)N[C@@H](Cc1ccc(O)cc1)C(=O)N[C@H](C(=O)N[C@@H](CC(N)=O)C(=O)N[C@@H](CC(C)C)C(=O)N[C@H](C(=O)N[C@H](C(=O)N[C@@H](CCCNC(=N)N)C(=O)N[C@@H](CCC(N)=O)C(=O)N[C@@H](CCCNC(=N)N)C(=O)N[C@@H](Cc1ccc(O)cc1)C(N)=O)[C@@H](C)O)[C@@H](C)CC)[C@@H](C)CC` (Ac-YKKK(Palmitoyl)[Ahx]ARHYINLITRQRY-NH2), the median effective dose (ED50) in the series on Mus musculus was found to be 1.1 mg/kg.
In the case of `CN(C)CCCN(C(=O)[C@H]1C[C@@H]1c1ccccc1)c1ccccc1SCc1ccccc1` (relative stereo), in series [2], the IC50 is 3700 nM.
Turning to `CCC(CC)C(=O)Nc1ccc(N2CCN(C(c3ccccc3)c3ncccn3)CC2)c(F)c1` (stereo not given), the IC50 in series [1] was determined as 33 nM. That is a double-digit nanomolar value.
On the same count and under the same terms, then `CCN(CC)C(=O)C(c1ccccc1)N1CCN(c2ccc(-c3c(C)noc3C)cc2F)CC1` (stereo not given), with 10000 nM.
Same read-out and setting: the value for `CC(=O)N1CCc2ccc(N(C/C=C\c3ccccc3)C3CCN(Cc4ccccc4)CC3)cc21` was 22000 nM.
Ac-LRHYLNLLTRQRY-NH2 came in with a Ki in series [15] above 1000 nM.
As to `CCC(CC)C(=O)Nc1ccc(N2CCN(C(c3ccccc3)c3cc(C)no3)CC2)c(F)c1` (stereo not given), the pKb in [3] is 7.5. This compound yielded an IC50 in series [1] of 38 nM.
As to `CCC(CC)C(=O)Nc1ccc(N2CCN(C(C(=O)N(CC)CC)c3ccc(Cl)cc3)CC2)c(F)c1` (stereo not given), in [1], the IC50 worked out at 100 nM.
`CCC(CC)C(=O)Nc1ccc(N2CCN(C(c3cccc(F)c3)c3ncco3)CC2)c(C#N)c1` (stereo not given): the pKb in series [3] is 7.9.
Take `CCN(CC)C(=O)C(c1ccccc1)N1CCN(c2ccc(NC(=O)c3c(C)cnn3C(C)(C)C)cc2F)CC1` (stereo not given): the IC50 in series [1] was 300 nM. That is a sub-micromolar value.
